The target of series [1] is T1, Deoxyuridine 5'-triphosphate nucleotidohydrolase, mitochondrial (Homo sapiens, UniProt P33316).
T1 sequence (P33316 whole entry): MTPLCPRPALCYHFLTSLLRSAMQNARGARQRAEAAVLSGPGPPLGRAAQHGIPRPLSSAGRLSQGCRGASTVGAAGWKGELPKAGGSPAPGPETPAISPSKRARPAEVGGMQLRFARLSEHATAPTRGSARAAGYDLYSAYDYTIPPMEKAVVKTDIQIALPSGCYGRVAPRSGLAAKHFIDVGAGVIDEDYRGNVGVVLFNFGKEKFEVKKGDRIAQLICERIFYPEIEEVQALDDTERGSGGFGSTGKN
As to the kind of experiment: Inhibition of human dUTPase-mediated formation of [5-3H]dUMP expressed in Escherichia coli BL21 (DE3) after 15 mins by HPLC analysis.

Series [2] concerns Mus musculus. Nature of the series: Toxicity in Balb/cA JcL mouse xenografted with human MX1 cells assessed as mortality at 300 mg/kg/day, po co-administered with 5-FU at 15 mg/kg/day as continuous infusion measured on day 15. As to conditions: in vivo. Format: organism-based. (Xenograft models place foreign cells or tissue in a host animal.)
A short description of series [3]: AUC (0 to t) in Balb/cA mouse at 50 mg/kg, po. More on the design: dose 50 mg/kg, route oral. The note with it: plasma. Format: ADME, organism-based.
Series [4] in a line: Cmax in Balb/cA mouse at 50 mg/kg, po. More on the design: dose 50 mg/kg, route oral. Format: ADME, organism-based. The note with it: in vivo.
Series [5] in a line: Half life in Balb/cA mouse at 50 mg/kg, po. More on the design: dose 50 mg/kg, route oral. It is filed as ADME, organism-based. As to conditions: in vivo.
Series [6] is described as follows: Tmax in Balb/cA mouse at 50 mg/kg, po. As to conditions: in vivo. Details: dose 50 mg/kg, route oral. It is filed as ADME, organism-based.
Series [7] has as its system MX1. Nature of the series: Potentiation of 5-FU induced antitumor activity in human MX1 cells xenografted in Balb/cA JcL mouse at 300 mg/kg/day, po measured on day 15. The note with it: MX1, 360 h. Format: functional.
Series [8] deals with MX1. As to the kind of experiment: Antitumor activity against human MX1 cells xenografted in Balb/cA JcL mouse at 300 mg/kg/day, po measured on day 15. As to conditions: MX1, 360 h. It is filed as functional.
For series [9], the system named is Mus musculus. Nature of the series: Toxicity in Balb/cA JcL mouse xenografted with human MX1 cells assessed as reduction of body weight at 300 mg/kg/day, po co-administered with 5-FU at 15 mg/kg/day as continuous infusion measured on day 15. It is filed as organism-based. The note with it: in vivo.
The test system of series [10] is MX1. As to the kind of experiment: Antitumor activity against human MX1 cells xenografted in Balb/cA JcL mouse at 15 mg/kg/day dosed as as continuous infusion measured on day 15. It is filed as functional. The note with it: MX1, 360 h.

`CC(C)(NS(=O)(=O)c1ccccc1)c1ccc(Cn2ccc(=O)[nH]c2=O)cc1`: in series [1], the IC50 – broadly, the point on the concentration scale where inhibition reaches its midpoint – amounted to 1800 nM.

The compound `CC(C)(CC/C=C/Cn1ccc(=O)[nH]c1=O)NS(=O)(=O)c1ccccc1` returned an IC50 in series [1] of 1600 nM.

Take `COc1cccc(S(=O)(=O)NC(C)(C)c2ccc(Cn3ccc(=O)[nH]c3=O)cc2)c1`: half-maximal inhibition in [1] (IC50) was put at 1270 nM.

The compound `CC(C)(NS(=O)(=O)c1cccc(OCC2CC2)c1)c1ccc(Cn2ccc(=O)[nH]c2=O)cc1` showed an IC50 in series [1] of 73 nM.

With `CC(C)(NS(=O)(=O)c1cccc(OC2CCCC2)c1)c1ccc(Cn2ccc(=O)[nH]c2=O)cc1`, the IC50 in series [1] came out at 31 nM.

In the case of `CC(C)(NS(=O)(=O)c1cccc(OCC(F)F)c1)c1ccc(Cn2ccc(=O)[nH]c2=O)cc1`, the IC50 in [1] was found to be 73 nM.

`COc1cccc(S(=O)(=O)NC(C)(C)CC/C=C/Cn2ccc(=O)[nH]c2=O)c1` had an IC50 in series [1] of 340 nM.

In [1], `CC(C)(CC/C=C/Cn1ccc(=O)[nH]c1=O)NS(=O)(=O)c1cccc(OC2CCCC2)c1` displayed an IC50 of 33 nM.

The compound `CC(C)(CC/C=C/Cn1ccc(=O)[nH]c1=O)NS(=O)(=O)c1cccc(OCC(F)F)c1` yielded an IC50 in series [1] of 26 nM.

The compound `C[C@@H](NS(=O)(=O)c1ccc(Cn2ccc(=O)[nH]c2=O)cc1)c1cccc(OCC2CC2)c1` yielded a concentration for half-maximal inhibition (IC50) in series [1] of 820 nM.

`C[C@@H](NS(=O)(=O)c1ccc(Cn2ccc(=O)[nH]c2=O)cc1)c1cccc(OC2CCCC2)c1` registered an IC50 in series [1] of 430 nM.

For the compound `C[C@@H](NS(=O)(=O)c1ccc(Cn2ccc(=O)[nH]c2=O)cc1)c1cccc(OCC(F)F)c1`, the IC50 in [1] amounted to 410 nM.

As for `C[C@@H](NS(=O)(=O)CC/C=C/Cn1ccc(=O)[nH]c1=O)c1cccc(OCC2CC2)c1`, the Activity result in the series with Mus musculus [2] and with Mus musculus [9] was “Non-toxic” each time. The compound further yielded an IC50 in series [1] of 39 nM. Further, the AUC(0-t) (commonly the area under the concentration-time curve up to a stated or last time point) in series [3] is 19.5 µM·h. Moreover, the concentration in series [4] peaked (Cmax) at 19.5 µM. The half-life (usually the time in which the quantity being followed falls by half) in [5] was 53.4 min. Moreover, the Tmax (commonly the time at which the peak concentration occurs) in series [6] was 30 min. Further, the values for the inhibition in vivo at 300 mg/kg/day in the series on MX1 [7] and in the series on MX1 [8] were 68% and -29%, respectively.

In turn, `C[C@@H](NS(=O)(=O)CC/C=C/Cn1ccc(=O)[nH]c1=O)c1cccc(OC2CCCC2)c1` yielded an IC50 in series [1] of 41 nM.

In turn, `C[C@@H](NS(=O)(=O)CC/C=C/Cn1ccc(=O)[nH]c1=O)c1cccc(OCC(F)F)c1` gave an IC50 in [1] of 82 nM.

In the case of `O=c1[nH]cc(F)c(=O)[nH]1` [FLUOROURACIL], in the series with MX1 [10], the inhibition in vivo (commonly the drop in the measured response relative to a control, in per cent) at 15 mg/kg/day was found to be 20%.

For the origin of these results see ChEMBL document CHEMBL2146384 (J Med Chem, 2012).
